We go through four molecules from article PMC2783692 (Analytical biochemistry, 2009).

Experiment [1] deals with cannabinoid (CB1) receptor. Description: PWR ligand binding to native rat trigeminal ganglion membrane fragments. The following applies: Figure 4, negative spectral shifts.
The subject of experiment [2] is chromatophore membranes. As to the kind of experiment: PWR ligand binding to deposited chromatophore membrane fragments. Further details: species or system Rhodopseudomonas sphaeroides.
A short description of experiment [3]: PWR ligand binding to bare sensor surface. The following applies: bare sensor versus chromatophore membrane fragments.

Consider `Cc1c(C(=O)c2cccc3ccccc23)c2cccc3c2n1[C@H](CN1CCOCC1)CO3` [WIN 55,212–2], for which the “KD values compared with radioligand binding and lipid bilayer PWR studies” value in experiment [1] was “excellent agreement”.
“bovine serum albumin: control protein replacing cyt c2”: the “changes in PWR spectral position (binding)” value in experiment [2] (control protein replacing cyt c2, up to 100 μM protein) is given as “did not observe any measurable changes”.
As for `CCCCCCC(C)(C)c1ccc([C@@H]2C[C@H](O)CC[C@H]2CCCO)c(O)c1` [CP 55,940], the “KD values compared with radioligand binding and lipid bilayer PWR studies” value in experiment [1] was “excellent agreement”.

B1: cyt c2: Reduced Rhodobacter capsulatus cytochrome (cyt) c2, isolated and purified (protein, UniProt P00094 22-137, looked up)
Cytochrome c2: GDAAKGEKEFNKCKTCHSIIAPDGTEIVKGAKTGPNLYGVVGRTAGTYPEFKYKDSIVALGASGFAWTEEDIATYVKDPGAFLKEKLDDKKAKTGMAFKLAKGGEDVAAYLASVVK
modifications: reduced
Take B1: the Kd in experiment [2] (read-out: apparent binding constant (KD), PWR, reduced cyt c2, hyperbolic fit, minimum of three separate experiments) was determined as 2500 nM. Moreover, the “binding weaker on bare sensor than on chromatophore fragments” value in experiment [3] is “approximately 10 fold”.
